≈ marks a conversion by molar mass, not a printed value.
What was measured:
Trichomonas vaginalis [1] = experiment: Anti-Trichomonas activity against Trichomonas vaginalis by quantitative fluorescent method; type: functional
Trichomonas vaginalis [2] = experiment: Anti-Trichomonas activity against metronidazole-resistant Trichomonas vaginalis IR78 ATCC 50138 cultured in PBS/BSA media assessed as reduction in parasite growth after 30 mins by haemocytometry; type: functional, organism-based; details: IR78 ATCC 50138, 0.5 h
Trichomonas vaginalis [3] = experiment: Anti-Trichomonas activity against metronidazole-resistant Trichomonas vaginalis IR78 ATCC 50138 cultured in TYI-S-33 media assessed as reduction in parasite growth after 30 mins by haemocytometry; type: functional, organism-based; details: IR78 ATCC 50138, 0.5 h
Trichomonas vaginalis [4] = experiment: Anti-Trichomonas activity against Trichomonas vaginalis after 24 hrs by inverted microscopic analysis; type: functional
Trichomonas vaginalis [5] = experiment: Anti-Trichomonas activity against metronidazole-resistant Trichomonas vaginalis JT after 48 hrs by hemocytometry; type: functional, organism-based
Trichomonas vaginalis [6] = experiment: Anti-Trichomonas activity against Trichomonas vaginalis at 100 uM; type: functional
Homo sapiens [7] = species on record: Homo sapiens; experiment: Spermicidal activity in human semen assessed as induction of sperm immobilization; type: functional
Trichomonas vaginalis [8] = experiment: Anti-Trichomonas activity against metronidazole-resistant Trichomonas vaginalis after 48 hrs by trypan blue exclusion assay; type: functional
Trichomonas vaginalis [9] = experiment: Anti-Trichomonas activity against metronidazole-susceptible Trichomonas vaginalis ATCC 30236 after 24 hrs by hemocytometry; type: functional, organism-based; details: ATCC 30236, 24 h
Trichomonas vaginalis [10] = experiment: Anti-Trichomonas activity against Trichomonas vaginalis; type: functional, organism-based
Trichomonas vaginalis [11] = experiment: Anti-Trichomonas activity against Metronidazole-resistant Trichomonas vaginalis 085 ATCC 50143 after 48 hrs by inverted microscopic analysis; type: functional; details: 085 ATCC 50143, 48 h
Trichomonas vaginalis [12] = experiment: Potency index, ratio of Metronidazole MIC to compound MIC for anti-trichomonas activity against Metronidazole-resistant Trichomonas vaginalis 085 ATCC 50143; type: functional
Trichomonas vaginalis [13] = experiment: Anti-Trichomonas activity against Metronidazole-resistant Trichomonas vaginalis isolate 085 ATCC 50143 infected in Swiss Webster mouse at 25 mg/kg, po dosed for 4 days measured at 24 hrs post last dose by microscopic analysis; type: functional
Trichomonas vaginalis [14] = experiment: Anti-Trichomonas activity against Trichomonas vaginalis isolate 2 at 250 uM after 48 hrs by microscopic analysis; type: functional; details: isolate 2, 48 h
Trichomonas vaginalis [15] = experiment: Anti-Trichomonas activity against Trichomonas vaginalis isolate 1 at 250 uM after 48 hrs by microscopic analysis; type: functional; details: isolate 1, 48 h
Trichomonas vaginalis [16] = experiment: Anti-Trichomonas activity against metronidazole-susceptible Trichomonas vaginalis after 48 hrs by trypan blue exclusion assay; type: functional
Homo sapiens [17] = species on record: Homo sapiens; experiment: Spermicidal activity in human semen assessed as induction of sperm immobilization 0.0015% after 30 secs in presence of sapindus saponin
Trichomonas vaginalis [18] = experiment: Anti-Trichomonas activity against Trichomonas vaginalis JT assessed as reduction in parasite growth after 24 hrs by haemocytometry; type: functional, organism-based
Trichomonas vaginalis [19] = experiment: Anti-Trichomonas activity against Trichomonas vaginalis JT assessed as reduction in parasite growth after 48 hrs by haemocytometry; type: functional, organism-based
Trichomonas vaginalis [20] = experiment: Anti-Trichomonas activity against metronidazole-resistant Trichomonas vaginalis ATCC 50138 assessed as inhibition of parasite growth at 5.5 mM measured at 5 to 60 mins in presence of NH4Cl by trypan blue-based assay; type: functional
Trichomonas vaginalis [21] = experiment: Anti-Trichomonas activity against metronidazole-susceptible Trichomonas vaginalis ATCC 30001 assessed as inhibition of parasite growth at 5.5 mM measured at 5 to 60 mins in presence of NH4Cl by trypan blue-based assay; type: functional
[22] = Trichomonas vaginalis, read-out: MIC

## C[C@H]1[C@H](C)CC[C@]2(C(=O)O[C@@H]3O[C@H](CO)[C@@H](O)[C@H](O)[C@H]3O)CC[C@]3(C)C(=CC[C@@H]4[C@@]5(C)CC[C@H](O[C@@H]6O[C@H](CO[C@@H]7O[C@@H](C)[C@H](O)[C@@H](O)[C@H]7O[C@@H]7O[C@H](CO)[C@@H](O)[C@H](O)[C@H]7O)[C@@H](O)[C@@H]6O)C(C)(C)[C@@H]5CC[C@]43C)[C@H]12
Trichomonas vaginalis [1]
  MIC: 0.05%

## CCCCCCCCN=c1ccn(CCCCCCCCCCn2ccc(=NCCCCCCCC)cc2)cc1.Cl.Cl [OCTENIDINE HYDROCHLORIDE]
Trichomonas vaginalis [2]
  EC50: 0.68 to 2.11 µg/mL
Trichomonas vaginalis [3]
  EC50: 0.68 to 2.11 µg/mL

## COC(=O)C1=CC[C@@H](O[C@@H]2O[C@H](CO)[C@@H](O)[C@H](O)[C@H]2O)C(CCC=O)[C@@H]1CC(=O)OCCc1ccc(O)c(O)c1 (some centres undefined)
Trichomonas vaginalis [4]
  MIC: 12.5 µM (≈ 7.11 µg/mL)

## OC1(c2ccc(-c3ccccc3)cc2)CN2CCC1CC2 (centres undefined)
Trichomonas vaginalis [5]
  IC50: 46 µM

## C[C@@H](CCC1(O)OC2CC3C4C[C@H](O[C@H]5O[C@@H](C)[C@H](O)[C@@H](O[C@H]6O[C@@H](C)[C@H](O)[C@@H](O)[C@@H]6O)[C@@H]5O)[C@H]5CC(=O)CC[C@]5(C)C4CC[C@]3(C)C2[C@@H]1C)CO[C@@H]1O[C@H](CO)[C@@H](O)[C@H](O)[C@H]1O (some centres undefined)
Trichomonas vaginalis [4]
  MIC: 6.25 to 50 µM (≈ 5.64 to 45.2 µg/mL)

## C[C@H]1CC[C@]2(NC1)O[C@H]1C[C@H]3[C@@H]4CC[C@H]5C[C@@H](O[C@@H]6O[C@H](CO)[C@H](O[C@@H]7O[C@H](CO)[C@@H](O)[C@H](O[C@@H]8OC[C@@H](O)[C@H](O)[C@H]8O)[C@H]7O[C@@H]7O[C@H](CO)[C@@H](O)[C@H](O)[C@H]7O)[C@H](O)[C@H]6O)CC[C@]5(C)[C@H]4CC[C@]3(C)[C@H]1[C@@H]2C [TOMATINE]
Trichomonas vaginalis [6]
  inhibition at 100 µM: 103%

## Cc1ncc([N+](=O)[O-])n1CCO [METRONIDAZOLE]
Homo sapiens [7]
  MEC: 1%
Trichomonas vaginalis [8]
  MIC: 1 to 111 µM

## CC(C)C(=O)C1=C(O)C(Cc2c(O)c3c(c(C(=O)C(C)C)c2O)OC(C)(C)C=C3)=C(O)C(C)(C)C1=O
Trichomonas vaginalis [9]
  IC50: 122 µM

## CC1(C)CC[C@]2(C(=O)O)CC[C@]3(C)C(=CC[C@@H]4[C@@]5(C)CC[C@H](O[C@@H]6[C@@H](O)[C@H](O[C@@H]7O[C@H](CO)[C@@H](O)[C@H](O)[C@H]7O)O[C@H](CO)[C@H]6O)C(C)(C)[C@@H]5CC[C@]43C)[C@@H]2C1
Trichomonas vaginalis [10]
  MIC: 0.25%

## CCCCCCCCCCCCCCCCCCCCCCCC
Trichomonas vaginalis [10]; [22]
  MIC: 500 to 1000 µg/mL (≈ 1480 to 2950 µM)

## COc1c2c(cc(O)c1C(=O)C(C)C)OC(C)(C)C=C2
Trichomonas vaginalis [9]
  IC50: 834 µM

## C1CCNC1.S=C(S)N1CCCC1 [listing 1 of 2 here]
Homo sapiens [7]
  MEC: 145 µM

## c1cc(CCCc2ccc(-c3nc4ccccc4[nH]3)cc2)cc(-c2nc3ccccc3[nH]2)c1
Trichomonas vaginalis [11]
  MIC: 26 µM (≈ 11.1 µg/mL)
Trichomonas vaginalis [12]
  Ratio: 5.5
Trichomonas vaginalis [13]
  Activity: 100%

## C1CCNCC1.S=C(S)N1CCCC1 [listing 1 of 2 here]
Homo sapiens [7]
  MEC: 61.5 mg/L

## O=C(/C=C/c1ccc(O)c(O)c1)O[C@H](Cc1ccc(O)c(O)c1)C(=O)O [ROSMARINIC ACID]
Trichomonas vaginalis [10]; [22]
  MIC: 20 µg/mL (≈ 55.5 µM)

## Oc1cc(O)c2c(c1)O[C@H](c1cc(O)c(O)c(O)c1)[C@@H](O)[C@@H]2c1c(O)cc(O)c2c1O[C@H](c1cc(O)c(O)c(O)c1)[C@@H](O)C2
Trichomonas vaginalis [10]; [22]
  MIC: > 2000 µg/mL

## COC(=O)C1=CO[C@@H](O[C@@H]2O[C@H](CO)[C@@H](O)[C@H](O)[C@H]2O)[C@H]2[C@@H]1C=C[C@@]21C=C([C@H](C)OC(=O)/C=C/c2ccc(O)cc2)C(=O)O1
Trichomonas vaginalis [4]
  MIC: 12.5 µM (≈ 7.71 µg/mL)

## CC1(C)CC[C@]2(C(=O)O)[C@H](O)C[C@]3(C)C(=CC[C@@H]4[C@@]5(C)CC[C@H](O[C@@H]6O[C@H](C(=O)O)[C@@H](O)[C@H](O)[C@H]6O)[C@@](C)(C=O)[C@@H]5CC[C@]43C)[C@@H]2C1
Trichomonas vaginalis [10]
  MIC: 0.025%

## FC(F)(F)c1ccc(OC(CCN2CCCC2)c2ccccc2)cc1 (centres undefined)
Homo sapiens [7]
  MEC: 1%
Trichomonas vaginalis [8]
  MIC: 12.5 to 50 µg/mL

## CCCCCCCCCCCCCCCC(=O)O [PALMITIC ACID]
Trichomonas vaginalis [10]; [22]
  MIC: 500 to 1000 µg/mL (≈ 1950 to 3900 µM)

## CCCCCCCCCCCC(=O)O[C@H]1C=C2CCN3Cc4cc5c(cc4[C@H]([C@@H]1O)[C@@H]23)OCO5
Trichomonas vaginalis [14]
  inhibition at 250 µM: 100%
Trichomonas vaginalis [15]
  inhibition at 250 µM: 100%

## N#CCCCN1CCN(C(=S)SSC(=S)N2CCN(CCCC#N)CC2)CC1
Trichomonas vaginalis [8]
  MIC: 3.12 to 50 µg/mL

## C1CCNCC1.S=C(S)N1CCCC1 [listing 2 of 2 here]
Trichomonas vaginalis [16]
  MIC: 1.56 µg/mL
Trichomonas vaginalis [8]
  MIC: 7.8 µg/mL

## C1CCNC1.S=C(S)N1CCCC1 [listing 2 of 2 here]
Trichomonas vaginalis [16]
  MIC: 5.25 µM
Trichomonas vaginalis [8]
  MIC: 13.5 µM

## C[C@@H](CCC1(O)OC2CC3C4C[C@H](O[C@H]5O[C@@H](C)[C@H](O)[C@@H](O[C@H]6O[C@@H](C)[C@H](O)[C@@H](O)[C@@H]6O)[C@@H]5O)[C@H]5CC(O)CC[C@]5(C)C4CC[C@]3(C)C2[C@@H]1C)CO[C@@H]1O[C@H](CO)[C@@H](O)[C@H](O)[C@H]1O (some centres undefined)
Trichomonas vaginalis [4]
  MIC: 6.25 to 50 µM (≈ 5.66 to 45.3 µg/mL)

## COc1cc2c(c(O)c1C(=O)C(C)C)C=CC(C)(C)O2
Trichomonas vaginalis [9]
  IC50: 1230 µM

## CN(CCC(Oc1ccc(C(F)(F)F)cc1)c1ccccc1)C(=S)SCN1CCCC1 (centres undefined)
Homo sapiens [7]
  MEC: 0.05%
Trichomonas vaginalis [8]
  MIC: 14 µg/mL

## Oc1cc(O)c2c(c1)O[C@H](c1ccc(O)c(O)c1)[C@H](O[C@]1(c3ccc(O)c(O)c3)Oc3cc(O)cc(O)c3[C@H](O)[C@H]1O)C2
Trichomonas vaginalis [10]; [22]
  MIC: > 2000 µg/mL

## C=C(CO[C@@H]1O[C@H](CO)[C@@H](O)[C@H](O)[C@H]1O)[C@@H]1Cc2c(ccc3c2O[C@H]2COc4cc(OC)c(OC)cc4[C@H]2[C@@H]3O)O1
Trichomonas vaginalis [4]
  MIC: 6.25 µM (≈ 3.59 µg/mL)

## O=C(SCC(CN1CCCC1)SSC(CSC(=O)N1CCCCC1)CN1CCCC1)N1CCCCC1 (centres undefined)
Homo sapiens [17]
  Activity: 100%

## OC[C@H]1O[C@@H](Oc2ccc(O)cc2)[C@H](O)[C@@H](O)[C@@H]1O [ARBUTIN]
Trichomonas vaginalis [10]; [22]
  MIC: 500 µg/mL (≈ 1840 µM)

## COc1cc2c(c(OC)c1C(=O)C(C)C)C=CC(C)(C)O2
Trichomonas vaginalis [9]
  IC50: 226 µM

## CCCCCCCCCCCCCCCCOP(=O)([O-])OCC[N+](C)(C)C [MILTEFOSINE]
Trichomonas vaginalis [11]
  MIC: 145 µM (≈ 59.1 µg/mL)
Trichomonas vaginalis [18]
  IC50: 14.5 µM
Trichomonas vaginalis [19]
  IC50: 20 µM

## CC(C)=CCC/C(C)=C/CO [GERANIOL]
Trichomonas vaginalis [10]; Trichomonas vaginalis
  IC50: 171 µg/mL (≈ 1110 µM)

## COc1cc(/C=C/C(=O)CC(=O)/C=C/c2ccc(O)c(OC)c2)ccc1O [CURCUMIN]
Trichomonas vaginalis [10]; Trichomonas vaginalis
  EC50: 100 µg/mL (≈ 271 µM)

## COC(=O)C1=CO[C@H](O[C@@H]2O[C@H](CO)[C@@H](O)[C@H](O)[C@H]2O)[C@@]2(C)[C@@H](C)OC(=O)C(C)(C)[C@@H](C)OC(=O)C[C@@]12C
Trichomonas vaginalis [4]
  MIC: 6.25 µM (≈ 3.42 µg/mL)

## O=S(=O)(O)CCNCl
Trichomonas vaginalis [20]
  inhibition at 5500 µM: 100%
Trichomonas vaginalis [21]
  inhibition at 5500 µM: 100%

Reference: ChEMBL document CHEMBL4138203, “Recent developments in anti-Trichomonas research: An update review” (Eur J Med Chem, 2018)
